Data as given in US9937151B2, “Carbapenem antibacterials with gram-negative activity” (priority 2010, dated 2018).
In brackets after ≈: the same amount, converted by molar mass.

Test system: G(−) bacterial strains
Test: Dilution antimicrobial susceptibility tests (MIC, NCCLS agar dilution / broth dilution)
Type: cell-based, Gram-negative organisms
Details: unit assumed
Protocol: The MIC (minimum inhibitory concentration) was determined by the NCCLS (National Committee for Clinical Laboratory Standards) methods 2000. Methods for dilution antimicrobial susceptibility testing for bacteria that growth aerobically (M7-A5, vol. 20, No. 2). The agar dilution method for determining antimicrobial susceptibility was carried out using Mueller-Hinton agar. A final inoculum of 10^4 CFU/spot was applied with an inoculation device. Broth dilution tests were performed with 5×10^5 CFU/well in 96 well plates. The susceptibilities of streptococci were determined by Mueller-Hinton agar supplemented with 5% sheep blood. All assays were run with the indicated control strains, available from the ATCC (American Type Culture Collection, Rockville, Md.).
Abbreviations used in Table 1 are defined as follows: Cf-R: Ceftazidime Resistance, Ci-R: Ciprofloxacin Resistance, Gen-R: Gentamycin Resistance, Imp-R: Imipenem Resistance, Mp-R: Meropenem Resistance, Ofx-R: Ofloxacin Resistance, B+: β-lactamase Production, AmpC: AmpC-lactamase Hyper production, CBPase: Carbapenemase Production.

[1] = strain #1 Acinetobacter calcoaceticus
[2] = strain #2 Acinetobacter baumannii, Cf-R, Ci-R
[3] = strain #3 Acinetobacter baumannii, Cf-R, Ci-R, Mp-I
[4] = strain #4 Acinetobacter baumannii, Cf-R, Imp-I, CBPase
[5] = strain #7 Enterobacter aerogenes
[6] = strain #8 Enterobacter cloacae, Cf-R, B+
[7] = strain #9 Enterobacter cloacae, Cf-R
[8] = strain #10 Escherichia coli, Ci-R
[9] = strain #11 Escherichia coli, Ci-R, AmpC
[10] = strain #15 Klebsiella pneumoniae
[11] = strain #16 Moraxella catarrhalis
[12] = strain #21 Providencia rettgeri
[13] = strain #22 Salmonella typhimurium
[14] = strain #25 Shigella dysenteriae
[15] = strain #28 Stenotrophomonas maltophilia
[16] = strain #29 Pseudomonas aeruginosa
[17] = strain #30 Pseudomonas aeruginosa
[18] = strain #31 Pseudomonas aeruginosa, Ofx-R
[19] = strain #32 Pseudomonas aeruginosa, Cf-R
[20] = strain #33 Pseudomonas aeruginosa, Ci-R
[21] = strain #34 Pseudomonas aeruginosa, Gen-R
[22] = strain #35 Pseudomonas aeruginosa, Ip-R
[23] = strain #36 Pseudomonas aeruginosa, Cf-R, Ci-R, Mp-R

SMILES	MIC [1] [µg/mL]	MIC [2] [µg/mL]	MIC [3] [µg/mL]	MIC [4] [µg/mL]	MIC (strain #5 Citrobacter diversus) [µg/mL]	MIC (strain #6 Citrobacter freundii) [µg/mL]	MIC [5] [µg/mL]	MIC [6] [µg/mL]	MIC [7] [µg/mL]	MIC [8] [µg/mL]	MIC [9] [µg/mL]	MIC (strain #12 Escherichia coli) [µg/mL]	MIC (strain #13 Escherichia coli) [µg/mL]	MIC (strain #14 Klebsiella oxytoca) [µg/mL]	MIC [10] [µg/mL]	MIC [11] [µg/mL]	MIC (strain #17 Morganella Morganii) [µg/mL]	MIC (strain #18 Morganella Morganii) [µg/mL]	MIC (strain #19 Proteus vulgaris) [µg/mL]	MIC (strain #20 Proteus mirabilis) [µg/mL]	further results
C[C@@H](O)C1C(=O)N2C(C(=O)O)=C(CN3CC(C(N)=O)C3)[C@H](C)C12 (stereo partly drawn) [Compound 49]	0.25 (≈ 0.773 µM)	0.5 (≈ 1.55 µM)	2 (≈ 6.19 µM)	1 (≈ 3.09 µM)	0.063 (≈ 0.195 µM)	0.13 (≈ 0.402 µM)	0.25 (≈ 0.773 µM)	0.063 (≈ 0.195 µM)	0.13 (≈ 0.402 µM)	0.063 (≈ 0.195 µM)	0.063 (≈ 0.195 µM)	0.063 (≈ 0.195 µM)	0.13 (≈ 0.402 µM)	0.25 (≈ 0.773 µM)	0.25 (≈ 0.773 µM)	≤ 0.008	2 (≈ 6.19 µM)	1 (≈ 3.09 µM)	0.5 (≈ 1.55 µM)	0.13 (≈ 0.402 µM)	MIC [12]: 0.5 µg/mL (≈ 1.55 µM); MIC [13]: 0.13 µg/mL (≈ 0.402 µM); MIC (strain #23 Serratia marcescens): 0.25 µg/mL (≈ 0.773 µM); MIC (strain #24 Serratia marcescens): 0.25 µg/mL (≈ 0.773 µM); MIC [14]: 0.13 µg/mL (≈ 0.402 µM); MIC (strain #26 Shigella sonnei): 0.13 µg/mL (≈ 0.402 µM); MIC (strain #27 Shigella flexneri): 0.063 µg/mL (≈ 0.195 µM); MIC [15]: 0.13 µg/mL (≈ 0.402 µM); MIC [16]: 4 µg/mL (≈ 12.4 µM); MIC [17]: 4 µg/mL (≈ 12.4 µM); MIC [18]: 2 µg/mL (≈ 6.19 µM); MIC [19]: 4 µg/mL (≈ 12.4 µM); MIC [20]: 4 µg/mL (≈ 12.4 µM); MIC [21]: 4 µg/mL (≈ 12.4 µM); MIC [22]: 8 µg/mL (≈ 24.7 µM); MIC [23]: 32 µg/mL (≈ 99 µM)
C[C@@H](O)C1C(=O)N2C(C(=O)O)=C(CN3CC(NS(N)(=O)=O)C3)[C@H](C)C12 (stereo partly drawn) [Compound 58]	0.5 (≈ 1.34 µM)	2 (≈ 5.34 µM)	4 (≈ 10.7 µM)	2 (≈ 5.34 µM)	0.13 (≈ 0.347 µM)	0.25 (≈ 0.668 µM)	0.5 (≈ 1.34 µM)	0.13 (≈ 0.347 µM)	0.25 (≈ 0.668 µM)	0.13 (≈ 0.347 µM)	0.13 (≈ 0.347 µM)	0.13 (≈ 0.347 µM)	0.25 (≈ 0.668 µM)	0.25 (≈ 0.668 µM)	0.25 (≈ 0.668 µM)	≤ 0.008	1 (≈ 2.67 µM)	1 (≈ 2.67 µM)	0.5 (≈ 1.34 µM)	0.25 (≈ 0.668 µM)	MIC [12]: 0.5 µg/mL (≈ 1.34 µM); MIC [13]: 0.25 µg/mL (≈ 0.668 µM); MIC (strain #23 Serratia marcescens): 0.5 µg/mL (≈ 1.34 µM); MIC (strain #24 Serratia marcescens): 0.5 µg/mL (≈ 1.34 µM); MIC [14]: 0.25 µg/mL (≈ 0.668 µM); MIC (strain #26 Shigella sonnei): 0.25 µg/mL (≈ 0.668 µM); MIC (strain #27 Shigella flexneri): 0.13 µg/mL (≈ 0.347 µM); MIC [15]: 0.25 µg/mL (≈ 0.668 µM); MIC [16]: 8 µg/mL (≈ 21.4 µM); MIC [17]: 8 µg/mL (≈ 21.4 µM); MIC [18]: 4 µg/mL (≈ 10.7 µM); MIC [19]: 8 µg/mL (≈ 21.4 µM); MIC [20]: 8 µg/mL (≈ 21.4 µM); MIC [21]: 8 µg/mL (≈ 21.4 µM); MIC [22]: 16 µg/mL (≈ 42.7 µM); MIC [23]: 32 µg/mL (≈ 85.5 µM)
C[C@@H](O)C1C(=O)N2C(C(=O)O)=C(CN3CC[C@H](NC(=N)N)C3)[C@H](C)C12 (stereo partly drawn) [Compound 64]	0.13 (≈ 0.37 µM)	1 (≈ 2.85 µM)	1 (≈ 2.85 µM)	0.5 (≈ 1.42 µM)	0.5 (≈ 1.42 µM)	0.5 (≈ 1.42 µM)	1 (≈ 2.85 µM)	0.5 (≈ 1.42 µM)	0.5 (≈ 1.42 µM)	0.25 (≈ 0.711 µM)	0.25 (≈ 0.711 µM)	0.5 (≈ 1.42 µM)	0.5 (≈ 1.42 µM)	1 (≈ 2.85 µM)	1 (≈ 2.85 µM)	≤ 0.008	4 (≈ 11.4 µM)	2 (≈ 5.69 µM)	1 (≈ 2.85 µM)	0.5 (≈ 1.42 µM)	MIC [12]: 2 µg/mL (≈ 5.69 µM); MIC [13]: 0.5 µg/mL (≈ 1.42 µM); MIC (strain #23 Serratia marcescens): 1 µg/mL (≈ 2.85 µM); MIC (strain #24 Serratia marcescens): 2 µg/mL (≈ 5.69 µM); MIC [14]: 0.5 µg/mL (≈ 1.42 µM); MIC (strain #26 Shigella sonnei): 0.5 µg/mL (≈ 1.42 µM); MIC (strain #27 Shigella flexneri): 0.25 µg/mL (≈ 0.711 µM); MIC [15]: 0.25 µg/mL (≈ 0.711 µM); MIC [16]: 1 µg/mL (≈ 2.85 µM); MIC [17]: 1 µg/mL (≈ 2.85 µM); MIC [18]: 0.25 µg/mL (≈ 0.711 µM); MIC [19]: 2 µg/mL (≈ 5.69 µM); MIC [20]: 2 µg/mL (≈ 5.69 µM); MIC [21]: 2 µg/mL (≈ 5.69 µM); MIC [22]: 2 µg/mL (≈ 5.69 µM); MIC [23]: 16 µg/mL (≈ 45.5 µM)
C[C@@H](O)C1C(=O)N2C(C(=O)[O-])=C(C[N+]3(C)CC[C@H](NC(=N)N)C3)[C@H](C)C12 (stereo partly drawn) [Compound 67]	2 (≈ 5.47 µM)	8 (≈ 21.9 µM)	8 (≈ 21.9 µM)	4 (≈ 10.9 µM)	0.13 (≈ 0.356 µM)	0.25 (≈ 0.684 µM)	4 (≈ 10.9 µM)	0.13 (≈ 0.356 µM)	0.25 (≈ 0.684 µM)	0.13 (≈ 0.356 µM)	0.13 (≈ 0.356 µM)	0.13 (≈ 0.356 µM)	0.25 (≈ 0.684 µM)	0.25 (≈ 0.684 µM)	4 (≈ 10.9 µM)	0.016 (≈ 0.0438 µM)	16 (≈ 43.8 µM)	16 (≈ 43.8 µM)	16 (≈ 43.8 µM)	0.25 (≈ 0.684 µM)	MIC [12]: 1 µg/mL (≈ 2.74 µM); MIC [13]: 0.25 µg/mL (≈ 0.684 µM); MIC (strain #23 Serratia marcescens): 0.5 µg/mL (≈ 1.37 µM); MIC (strain #24 Serratia marcescens): 0.5 µg/mL (≈ 1.37 µM); MIC [14]: 0.25 µg/mL (≈ 0.684 µM); MIC (strain #26 Shigella sonnei): 0.25 µg/mL (≈ 0.684 µM); MIC (strain #27 Shigella flexneri): 0.13 µg/mL (≈ 0.356 µM); MIC [15]: 2 µg/mL (≈ 5.47 µM); MIC [16]: 1 µg/mL (≈ 2.74 µM); MIC [17]: 2 µg/mL (≈ 5.47 µM); MIC [18]: 2 µg/mL (≈ 5.47 µM); MIC [19]: 2 µg/mL (≈ 5.47 µM); MIC [20]: 2 µg/mL (≈ 5.47 µM); MIC [21]: 2 µg/mL (≈ 5.47 µM); MIC [22]: 4 µg/mL (≈ 10.9 µM); MIC [23]: 16 µg/mL (≈ 43.8 µM)
